Experimental data as given in ChEMBL document CHEMBL3046559, “Sterile oat (Avena sterilis L.) cross-resistance profile to ACCase-inhibiting herbicides in Greece” (2012).

Legend:
Format in all cases: functional
[1] = test system: Avena sterilis; assay: Herbicidal activity against Avena sterilis accession P01 assessed as weed survival at 4 times field recommended herbicide dose
[2] = test system: Avena sterilis; assay: Herbicidal activity against Avena sterilis accession P14 assessed as weed survival at 8 times field recommended herbicide dose
[3] = test system: Avena sterilis; assay: Herbicidal activity against Avena sterilis accession P05 assessed as weed survival at 32 times field recommended herbicide dose
[4] = test system: Avena sterilis; assay: Herbicidal activity against Avena sterilis accession P22 assessed as weed survival at 16 times field recommended herbicide dose
[5] = test system: Avena sterilis; assay: Herbicidal activity against Avena sterilis accession P18 assessed as weed survival at 1 times field recommended herbicide dose
[6] = test system: Avena sterilis; assay: Herbicidal activity against Avena sterilis accession P21S assessed as weed survival at 1/16 times field recommended herbicide dose
[7] = test system: Avena sterilis; assay: Herbicidal activity against Avena sterilis accession P07 assessed as weed survival at 1 times field recommended herbicide dose
[8] = test system: Avena sterilis; assay: Herbicidal activity against Avena sterilis accession P22 assessed as weed survival at 8 times field recommended herbicide dose
[9] = test system: Avena sterilis; assay: Herbicidal activity against Avena sterilis accession P22 assessed as weed survival at 32 times field recommended herbicide dose
[10] = test system: Avena sterilis; assay: Herbicidal activity against Avena sterilis accession P05 assessed as induction of weed mortality
[11] = test system: Avena sterilis; assay: Herbicidal activity against Avena sterilis accession P07 assessed as induction of weed mortality
[12] = test system: Avena sterilis; assay: Herbicidal activity against Avena sterilis accession P07 assessed as weed survival at 16 times field recommended herbicide dose
[13] = test system: Avena sterilis; assay: Herbicidal activity against Avena sterilis accession P13S assessed as weed survival at 1/4 times field recommended herbicide dose
[14] = test system: Avena sterilis; assay: Herbicidal activity against Avena sterilis accession P21S assessed as induction of weed mortality
[15] = test system: Avena sterilis; assay: Herbicidal activity against Avena sterilis accession P13S assessed as induction of weed mortality
[16] = test system: Avena sterilis; assay: Herbicidal activity against Avena sterilis accession P11 assessed as weed survival at 8 times field recommended herbicide dose
[17] = test system: Avena sterilis; assay: Herbicidal activity against Avena sterilis accession P05 assessed as weed survival at 8 times field recommended herbicide dose
[18] = test system: Avena sterilis; assay: Herbicidal activity against Avena sterilis accession P04 assessed as weed survival at 16 times field recommended herbicide dose
[19] = test system: Avena sterilis; assay: Herbicidal activity against Avena sterilis accession P12 assessed as weed survival at 8 times field recommended herbicide dose
[20] = test system: Avena sterilis; assay: Herbicidal activity against Avena sterilis accession P04 assessed as weed survival at 4 times field recommended herbicide dose
[21] = test system: Avena sterilis; assay: Herbicidal activity against Avena sterilis accession P11 assessed as weed survival at 16 times field recommended herbicide dose
[22] = test system: Avena sterilis; assay: Herbicidal activity against Avena sterilis accession P10S assessed as weed survival at 1/4 times field recommended herbicide dose
[23] = test system: Avena sterilis; assay: Herbicidal activity against Avena sterilis accession P14 assessed as induction of weed mortality
[24] = test system: Avena sterilis; assay: Herbicidal activity against Avena sterilis accession P16 assessed as weed survival at 1 times field recommended herbicide dose
[25] = test system: Avena sterilis; assay: Herbicidal activity against Avena sterilis accession P06S assessed as weed survival at 1/8 times field recommended herbicide dose
[26] = test system: Avena sterilis; assay: Herbicidal activity against Avena sterilis accession P16 assessed as weed survival at 4 times field recommended herbicide dose
[27] = test system: Avena sterilis; assay: Herbicidal activity against Avena sterilis accession P10S assessed as induction of weed mortality
[28] = test system: Avena sterilis; assay: Herbicidal activity against Avena sterilis accession P17 assessed as weed survival at 16 times field recommended herbicide dose
[29] = test system: Avena sterilis; assay: Herbicidal activity against Avena sterilis accession P01 assessed as weed survival at 32 times field recommended herbicide dose
[30] = test system: Avena sterilis; assay: Herbicidal activity against Avena sterilis accession P08 assessed as weed survival at 8 times field recommended herbicide dose
[31] = test system: Avena sterilis; assay: Herbicidal activity against Avena sterilis accession P02 assessed as weed survival at 8 times field recommended herbicide dose
[32] = test system: Avena sterilis; assay: Herbicidal activity against Avena sterilis accession P21S assessed as weed survival at 1/8 times field recommended herbicide dose
[33] = test system: Avena sterilis; assay: Herbicidal activity against Avena sterilis accession P16 assessed as induction of weed mortality
[34] = test system: Avena sterilis; assay: Herbicidal activity against Avena sterilis accession P06S assessed as induction of weed mortality
[35] = test system: Avena sterilis; assay: Herbicidal activity against Avena sterilis accession P19S assessed as weed survival at 1/8 times field recommended herbicide dose
[36] = test system: Avena sterilis; assay: Herbicidal activity against Avena sterilis accession P05 assessed as weed survival at 16 times field recommended herbicide dose
[37] = test system: Avena sterilis; assay: Herbicidal activity against Avena sterilis accession P09 assessed as induction of weed mortality
[38] = test system: Avena sterilis; assay: Herbicidal activity against Avena sterilis accession P17 assessed as weed survival at 8 times field recommended herbicide dose
[39] = test system: Avena sterilis; assay: Herbicidal activity against Avena sterilis accession P22 assessed as weed survival at 4 times field recommended herbicide dose
[40] = test system: Avena sterilis; assay: Herbicidal activity against Avena sterilis accession P21S assessed as weed survival at 1/4 times field recommended herbicide dose
[41] = test system: Avena sterilis; assay: Herbicidal activity against Avena sterilis accession P11 assessed as weed survival at 32 times field recommended herbicide dose
[42] = test system: Avena sterilis; assay: Herbicidal activity against Avena sterilis accession P11 assessed as induction of weed mortality
[43] = test system: Avena sterilis; assay: Herbicidal activity against Avena sterilis accession P10S assessed as weed survival at 1 times field recommended herbicide dose
[44] = test system: Avena sterilis; assay: Herbicidal activity against Avena sterilis accession P11 assessed as weed survival at 1 times field recommended herbicide dose
[45] = test system: Avena sterilis; assay: Herbicidal activity against Avena sterilis accession P01 assessed as induction of weed mortality
[46] = test system: Avena sterilis; assay: Herbicidal activity against Avena sterilis accession P16 assessed as weed survival at 8 times field recommended herbicide dose
[47] = test system: Avena sterilis; assay: Herbicidal activity against Avena sterilis accession P03 assessed as weed survival at 8 times field recommended herbicide dose
[48] = test system: Avena sterilis; assay: Herbicidal activity against Avena sterilis accession P02 assessed as weed survival at 32 times field recommended herbicide dose
[49] = test system: Avena sterilis; assay: Herbicidal activity against Avena sterilis accession P12 assessed as induction of weed mortality
[50] = test system: Avena sterilis; assay: Herbicidal activity against Avena sterilis accession P15 assessed as weed survival at 1 times field recommended herbicide dose
[51] = test system: Avena sterilis; assay: Herbicidal activity against Avena sterilis accession P04 assessed as induction of weed mortality
[52] = test system: Avena sterilis; assay: Herbicidal activity against Avena sterilis accession P07 assessed as weed survival at 32 times field recommended herbicide dose
[53] = test system: Avena sterilis; assay: Herbicidal activity against Avena sterilis accession P18 assessed as induction of weed mortality
[54] = test system: Avena sterilis; assay: Herbicidal activity against Avena sterilis accession P18 assessed as weed survival at 16 times field recommended herbicide dose
[55] = test system: Avena sterilis; assay: Herbicidal activity against Avena sterilis accession P22 assessed as weed survival at 1 times field recommended herbicide dose
[56] = test system: Avena sterilis; assay: Herbicidal activity against Avena sterilis accession P06S assessed as weed survival at 1/32 times field recommended herbicide dose
[57] = test system: Avena sterilis; assay: Herbicidal activity against Avena sterilis accession P07 assessed as weed survival at 4 times field recommended herbicide dose
[58] = test system: Avena sterilis; assay: Herbicidal activity against Avena sterilis accession P05 assessed as weed survival at 1 times field recommended herbicide dose
[59] = test system: Avena sterilis; assay: Herbicidal activity against Avena sterilis accession P12 assessed as weed survival at 1 times field recommended herbicide dose

C#CCOC(=O)[C@@H](C)Oc1ccc(Oc2ncc(Cl)cc2F)cc1 [CLODINAFOP PROPARGYL]
Survival [1]: 87% | Survival [2]: 80% | Survival [3]: 0% | Survival [4]: 0% | Survival [5]: 80% | Survival [6]: 90% | Survival [7]: 13% | Survival [8]: 20% | Survival [9]: 0% | GR50 [10]: 180 gAi/ha | GR50 [11]: <41 gAi/ha | Survival [12]: 0% | Survival [13]: 10% | GR50 [14]: 11 gAi/ha | GR50 [15]: 5 gAi/ha | Survival [16]: 100% | Survival [17]: 40% | Survival [18]: 73% | Survival [19]: 100% | Survival [20]: 100% | Survival [21]: 97% | Survival [22]: 40% | GR50 [23]: 1219 gAi/ha | Survival [24]: 93% | Survival [25]: 80% | Survival [26]: 50% | GR50 [27]: 8 gAi/ha | Survival [28]: 27% | Survival [29]: 40% | Survival [30]: 93% | Survival [31]: 97% | Survival [32]: 77% | GR50 [33]: 169 gAi/ha | GR50 [34]: 9 gAi/ha | Survival [35]: 97% | Survival [36]: 13% | GR50 [37]: 46 gAi/ha | Survival [38]: 40% | Survival [39]: 43% | Survival [40]: 60% | Survival [41]: 93% | GR50 [42]: >1312 gAi/ha | Survival [43]: 0% | Survival [44]: 100% | GR50 [45]: 1053 gAi/ha | Survival [46]: 20% | Survival [47]: 97% | Survival [48]: 87% | GR50 [49]: >1312 gAi/ha | Survival [50]: 100% | GR50 [51]: >1312 gAi/ha | Survival [52]: 0% | GR50 [53]: 520 gAi/ha | Survival [54]: 40% | Survival [55]: 90% | Survival [56]: 100% | Survival [57]: 0% | Survival [58]: 90% | Survival [59]: 100%
